11 compounds from ChEMBL document CHEMBL1129658, “Syntheses and conformational analyses of glutamate analogs: 2-(2-carboxy-3-substituted-cyclopropyl)glycines as useful probes for excitatory amino acid receptors” (J Med Chem, 1996) can be followed below.

The nature of data set [1]: pKa value by 1H NMR titration experiments; pK3. It counts as physicochemical.
The nature of data set [2]: pKa value by 1H NMR titration experiments; pK1. The class given is physicochemical.
The species named for data set [3] is Rattus norvegicus. As to the kind of experiment: Depolarizing potency in new born rat spinal cord. The class given is functional.
The nature of data set [4]: pKa value by 1H NMR titration experiments; pK2. It counts as physicochemical.
Data set [5] in a line: Compound was tested for the Inhibition of forskolin-stimulated cAMP formation in the cultured spinal neurons. Particulars: Rattus norvegicus.
The species entered for data set [6] is Rattus norvegicus. As to the kind of experiment: Compound was tested for the inhibition of spinal reflex evoked by electrical stimulation of the dorsal root of new born rat.

In the case of `COC[C@H]1[C@H](C(=O)O)[C@H]1[C@H](N)C(=O)O`, the values for the pKa in data set [1], in data set [2] and in data set [4] were 10.2, 2.3 and 4.2, respectively. The Relative potency in data set [3] was determined as 0.1.

Turning to `N[C@H](C(=O)O)[C@H]1C[C@@H]1C(=O)O`, the concentration for half-maximal inhibition (IC50) in data set [5] was found to be 100 nM; in data set [6], 700 nM. The values for the pKa in data set [1], in data set [2] and in data set [4] were 9.7, 1.9 and 4.2, respectively. In addition, the Relative potency in data set [3] was determined as 6.

`N[C@H](C(=O)O)[C@@H]1C[C@@H]1C(=O)O`: the pKa in data set [1] turned out to be 10; in data set [2] it was 2.5; in data set [4], 4.6. In data set [3], this compound yielded a Relative potency of 100.

Take `N[C@H](C(=O)O)[C@H]1C[C@H]1C(=O)O`: the values for the pKa in data set [1], in data set [2] and in data set [4] were 10, 2.1 and 4.3, respectively.

For `COC[C@@H]1[C@H](C(=O)O)[C@H]1[C@H](N)C(=O)O`, the pKa was found to be 9.7 in data set [1], 2.1 in data set [2] and 4 in data set [4]. In addition, the Relative potency in data set [3] stood at 0.1.

For the compound `COC[C@@H]1[C@H](C(=O)O)[C@@H]1[C@H](N)C(=O)O`, the pKa in data set [1] was determined as 10.1; in data set [2], 2; in data set [4] it was 5.1. This compound displayed a Relative potency in data set [3] of 25.

As for `N[C@H](C(=O)O)[C@@H]1C[C@H]1C(=O)O`, the pKa in data set [1] turned out to be 9.5; in data set [2], 2.2; in data set [4], 4.2.

Consider `COC[C@H]1[C@H](C(=O)O)[C@@H]1[C@H](N)C(=O)O`, for which the pKa in data set [1] was 9.6; in data set [2] it was 2.2; in data set [4], 4.7. Also, in data set [3], the Relative potency came to 50.

Take `Cc1onc(O)c1CC(N)C(=O)O` [(R,S)-AMPA]: the pKa in data set [1] came to 10.1; in data set [2] it was 2.1; in data set [4] it was 5.2.

For the compound `N[C@@H](CCC(=O)O)C(=O)O` [GLUTAMIC ACID], the pKa in data set [1] was found to be 9.7. Besides, in data set [3], the Relative potency worked out at 1.

With `C=C(C)[C@H]1CN[C@H](C(=O)O)[C@H]1CC(=O)O` [KAINIC ACID], the pKa in data set [1] worked out at 10.1; in data set [2], 2.1; in data set [4], 4.3. Moreover, the Relative potency in data set [3] came out at 100.
